Patent US10669272B2, “Substituted naphthyridinone compounds useful as T cell activators” (BRISTOL-MYERS SQUIBB COMPANY, priority 2018, dated 2020)
Where two headings read alike, the source gives them in different places.

Legend:
human DGKζ = molecular target: T1, human DGKζ (Homo sapiens, UniProt Q13574); experiment: DGKζ LIPGLO assay (extruded liposome substrate), in vitro DGK inhibition; type: biochemical; details: liposome (LIPGLO) assay; read-out: DGKz LIPGLO IC50
T1 construct: TVMV protease cleavage site (C); Hexa-His (C); made in house; host or cells: Sf9 insect cells (baculovirus, Bac-to-Bac)
T1 sequence (Q13574 with tags, fused parts or gaps isoform Q13574-4): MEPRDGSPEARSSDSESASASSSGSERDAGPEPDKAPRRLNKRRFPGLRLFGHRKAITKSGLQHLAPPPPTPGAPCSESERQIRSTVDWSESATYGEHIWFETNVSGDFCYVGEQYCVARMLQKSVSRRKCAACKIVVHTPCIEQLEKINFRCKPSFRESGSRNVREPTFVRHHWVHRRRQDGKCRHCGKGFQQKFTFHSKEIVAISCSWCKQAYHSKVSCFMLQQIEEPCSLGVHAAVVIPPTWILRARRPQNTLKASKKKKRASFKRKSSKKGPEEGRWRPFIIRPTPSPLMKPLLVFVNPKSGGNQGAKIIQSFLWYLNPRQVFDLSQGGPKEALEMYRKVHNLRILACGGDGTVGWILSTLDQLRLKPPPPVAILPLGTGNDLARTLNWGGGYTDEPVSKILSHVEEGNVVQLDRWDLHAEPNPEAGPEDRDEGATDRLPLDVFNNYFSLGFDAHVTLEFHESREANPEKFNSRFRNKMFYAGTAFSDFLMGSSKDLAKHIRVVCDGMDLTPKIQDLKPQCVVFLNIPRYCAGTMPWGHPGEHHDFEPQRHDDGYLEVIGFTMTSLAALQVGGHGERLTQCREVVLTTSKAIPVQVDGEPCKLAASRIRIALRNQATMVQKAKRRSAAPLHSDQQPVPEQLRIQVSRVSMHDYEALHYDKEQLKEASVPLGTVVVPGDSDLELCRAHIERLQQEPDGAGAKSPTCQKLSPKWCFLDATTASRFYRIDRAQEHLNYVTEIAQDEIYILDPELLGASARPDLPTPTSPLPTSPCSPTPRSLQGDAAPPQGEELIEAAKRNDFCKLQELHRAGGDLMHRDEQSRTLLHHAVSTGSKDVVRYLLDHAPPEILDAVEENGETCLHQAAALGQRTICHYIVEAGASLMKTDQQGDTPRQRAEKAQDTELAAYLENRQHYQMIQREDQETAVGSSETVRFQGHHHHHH

human DGKα = molecular target: T2, human DGKα (Homo sapiens, UniProt P23743); experiment: DGKα LIPGLO assay (extruded liposome substrate), in vitro DGK inhibition; type: biochemical; details: liposome (LIPGLO) assay; read-out: DGKa LIPGLO IC50
T2 construct: TVMV protease cleavage site (C); Hexa-His (C); made in house; host or cells: Sf9 insect cells (baculovirus, Bac-to-Bac)
T2 sequence (P23743 with tags, fused parts or gaps): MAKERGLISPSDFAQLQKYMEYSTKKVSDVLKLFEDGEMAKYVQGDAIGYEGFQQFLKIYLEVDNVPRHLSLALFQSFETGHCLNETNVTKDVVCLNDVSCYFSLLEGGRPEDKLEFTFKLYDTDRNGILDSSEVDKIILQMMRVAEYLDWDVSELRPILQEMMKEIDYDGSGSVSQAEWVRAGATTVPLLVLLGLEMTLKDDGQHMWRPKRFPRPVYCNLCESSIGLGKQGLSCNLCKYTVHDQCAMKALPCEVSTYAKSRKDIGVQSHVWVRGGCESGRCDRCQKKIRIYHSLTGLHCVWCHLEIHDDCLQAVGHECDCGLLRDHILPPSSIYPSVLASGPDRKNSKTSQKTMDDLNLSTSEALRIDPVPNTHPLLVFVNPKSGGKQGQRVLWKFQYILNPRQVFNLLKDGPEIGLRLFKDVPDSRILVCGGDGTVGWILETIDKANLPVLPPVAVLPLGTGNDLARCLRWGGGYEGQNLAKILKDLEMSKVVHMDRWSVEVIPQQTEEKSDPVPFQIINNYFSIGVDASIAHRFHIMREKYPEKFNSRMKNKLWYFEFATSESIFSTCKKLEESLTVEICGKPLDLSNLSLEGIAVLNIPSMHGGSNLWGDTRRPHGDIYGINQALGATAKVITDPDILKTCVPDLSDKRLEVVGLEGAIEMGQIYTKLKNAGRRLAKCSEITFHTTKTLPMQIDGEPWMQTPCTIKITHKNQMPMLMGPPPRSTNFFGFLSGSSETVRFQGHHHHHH

naïve human CD8 T cells = experiment: Human CD8 T cells IFN-γ assay; type: cell-based; details: normalized to 3 μM reference compound with anti-CD3 plus anti-CD28 as 100% activation, read-out: HuCD8 INFG Normalized EC50;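 also: Naïve human CD8 T cells stimulated with plate-bound anti-CD3 and soluble anti-CD28, IFN-γ in supernatant quantified by AlphaLISA and converted to pg/mL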
[1] = test system: OT-1 CD8+ T cells with SIINFEKL-loaded MC38 tumor cells; experiment: Murine cytotoxic T lymphocyte assay (IFN-γ, OT-1 CTL with MC38 tumor cells); type: cell-based, mouse; details: read-out: msCTL INFg IC50
Summary of the method: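 IFN-γ was quantified by AlphaLISA in supernatants after 24 h co-culture at 37° C. Effectors were OT-1 CD8+ CTLs (5-day peptide/mIL2 expansion), exposed 1 h to DGK inhibitors before mixing 1:10 with MC38 tumor cells loaded 3 h with 1 μg/mL SIINFEKL peptide.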

Human venous whole blood = experiment: Human whole blood IFN-γ assay; type: cell-based; details: human whole blood, normalized to 3 μM reference compound with anti-CD3 plus anti-CD28 as 100% activation, read-out: INFg Whole Blood Normalized Agonist EC50;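 also: blood from healthy donors exposed to compound for 1 h before stimulation with anti-CD3 and anti-CD28 at 1 µg/mL each, IFN-γ quantified in supernatant by AlphaLISA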
Method: Human Whole Blood IFN-γ Assay
Human venous whole blood (22.5 μL per well), obtained from healthy donors, was pre-treated with compounds for one hour at 37° C. in a humidified 95% air/5% CO2 incubator. The blood was stimulated with 2.5 μL anti-human CD3 and anti-CD28 mAb at a final concentration of 1 μg/mL each for 24 hours at 37° C. IFN-γ in the supernatants was measured using AlphLISA kit (Cat # AL217).

`CC(C)C(C)(O)C1CN(c2cc(=O)n(C)c3ccc(C#N)nc23)CCN1C(c1ccc(F)cc1)c1ccc(F)cc1` (single isomer, unassigned) [Example 88, 8-(4-(bis(4-fluorophenyl)methyl)-3-(2-hydroxy-3-methylbutan-2-yl)piperazin-1-yl)-5-methyl-6-oxo-5,6-dihydro-1,5-naphthyridine-2-carbonitrile] was tested, and the IC50 (human DGKζ) was 240000 nM, the IC50 (human DGKα) was 140000 nM and the EC50 (naïve human CD8 T cells; Homo sapiens, T-cell, 20 h) was 2000 nM. It also gave an IC50 [1] of 990 nM and an EC50 (Human venous whole blood; Homo sapiens, 24 h) of 10000 nM.

For `COC(=O)C1CN(c2c(Cl)c(=O)n(C)c3ccc(C#N)nc23)CCN1C(c1ccc(F)cc1)c1ccc(F)cc1` (single isomer, unassigned) [Example 76, methyl 1-(bis(4-fluorophenyl)methyl)-4-(3-chloro-6-cyano-1-methyl-2-oxo-1,2-dihydro-1,5-naphthyridin-4-yl)piperazine-2-carboxylate], the IC50 (human DGKζ) was 5200 nM, the IC50 (human DGKα) was 3400 nM and the EC50 (naïve human CD8 T cells; Homo sapiens, T-cell, 20 h) was 10000 nM. It also gave an IC50 [1] of 280 nM and an EC50 (Human venous whole blood; Homo sapiens, 24 h) of 1600 nM.

`Cn1c(=O)cc(N2CCN(C(c3ccc(F)cc3)c3ccc(F)cc3)C(C(=O)OC3CC3)C2)c2nc(C#N)ccc21` (single isomer, unassigned) [Example 107, cyclopropyl 1-(bis(4-fluorophenyl)methyl)-4-(6-cyano-1-methyl-2-oxo-1,2-dihydro-1,5-naphthyridin-4-yl)piperazine-2-carboxylate] gave an IC50 (human DGKζ) of 200 nM, an IC50 (human DGKα) of 40000 nM and an EC50 (naïve human CD8 T cells) of 27 nM. The IC50 [1] was 750 nM and the EC50 (Human venous whole blood) was 11000 nM.

In the case of `C[C@@H]1CN(c2c([N+](=O)[O-])c(=O)n(C)c3ccc(C#N)nc23)[C@@H](C)CN1C(c1ccc(F)cc1)c1ccc(F)cc1` [Example 161, 8-((2S,5R)-4-(bis(4-fluorophenyl)methyl)-2,5-dimethylpiperazin-1-yl)-5-methyl-7-nitro-6-oxo-5,6-dihydro-1,5-naphthyridine-2-carbonitrile], the IC50 (human DGKζ) is reported as 29000 nM, the IC50 (human DGKα) is reported as 68000 nM and the EC50 (naïve human CD8 T cells; Homo sapiens, T-cell, 20 h) is reported as 520 nM. For the same molecule, the IC50 ([1]; Mus musculus, MC-38) was 1500 nM and the EC50 (Human venous whole blood; Homo sapiens, 24 h) was 8600 nM.

`Cn1c(=O)cc(N2CCN(C(c3ccc(F)cc3)c3ccc(F)cc3)C(C#N)C2)c2nc(C#N)ccc21` (single isomer, unassigned) [Example 44, 8-(4-(bis(4-fluorophenyl)methyl)-3-cyanopiperazin-1-yl)-5-methyl-6-oxo-5,6-dihydro-1,5-naphthyridine-2-carbonitrile] gave an IC50 (human DGKζ) of 5500 nM, an IC50 (human DGKα) of 2900 nM and an EC50 (naïve human CD8 T cells; Homo sapiens, T-cell, 20 h) of 460 nM. The IC50 ([1]; Mus musculus, MC-38) was 590 nM and the EC50 (Human venous whole blood; Homo sapiens, 24 h) was 3900 nM.

With `COC(=O)C1CN(c2c(C#N)c(=O)n(C)c3ccc(C#N)nc23)CCN1C(c1ccc(F)cc1)c1ccc(F)cc1` (single isomer, unassigned) [Example 50, methyl 1-(bis(4-fluorophenyl)methyl)-4-(3,6-dicyano-1-methyl-2-oxo-1,2-dihydro-1,5-naphthyridin-4-yl)piperazine-2-carboxylate] the IC50 (human DGKζ) was 750 nM, the IC50 (human DGKα) was 2200 nM and the EC50 (naïve human CD8 T cells) was 72 nM. For the same molecule, the IC50 [1] was 150 nM and the EC50 (Human venous whole blood; Homo sapiens, 24 h) was 1500 nM.

For `COc1cc(F)ccc1C(c1ccc(F)cc1)N1C[C@H](C)N(c2cc(=O)n(C)c3ccc(C#N)nc23)C[C@H]1C` (single isomer, unassigned) [Example 108], the IC50 (human DGKζ) was 130 nM, the IC50 (human DGKα) was 3400 nM and the EC50 (naïve human CD8 T cells) was 33 nM. The IC50 [1] was 130 nM and the EC50 (Human venous whole blood) was 440 nM.

Work on `COC(=O)C1CN(c2cc(=O)n(C)c3ccc(C#N)nc23)CCN1C(c1ccc(F)cc1)c1ccc(F)cc1` (single isomer, unassigned) [Example 40, Methyl 1-(bis(4-fluorophenyl)methyl)-4-(6-cyano-1-methyl-2-oxo-1,2-dihydro-1,5-naphthyridin-4-yl)piperazine-2-carboxylate] yielded an IC50 (human DGKζ) of 630 nM, an IC50 (human DGKα) of 1200 nM and an EC50 (naïve human CD8 T cells) of 28 nM. For the same molecule, the IC50 [1] was 71 nM and the EC50 (Human venous whole blood) was 780 nM.

Work on `COC(=O)C1CN(C(c2ccc(F)cc2)c2ccc(F)cc2)CCN1c1c(C#N)c(=O)n(C)c2ccc(C#N)nc12` (single isomer, unassigned) [Example 116, Methyl 4-(bis(4-fluorophenyl)methyl)-1-(3,6-dicyano-1-methyl-2-oxo-1,2-dihydro-1,5-naphthyridin-4-yl)piperazine-2-carboxylate] yielded an IC50 (human DGKζ) of 3600 nM, an IC50 (human DGKα) of 9500 nM and an EC50 (naïve human CD8 T cells; Homo sapiens, T-cell, 20 h) of 160 nM. The IC50 [1] was 560 nM and the EC50 (Human venous whole blood; Homo sapiens, 24 h) was 3300 nM.

Molecule `C[C@@H]1CN(c2cc(=O)n(C)c3ccc(C#N)nc23)[C@@H](C)CN1C(c1ccc(F)cc1)c1ccccn1` (single isomer, unassigned) [Example 197] has an IC50 (human DGKζ) of 3700 nM, an IC50 (human DGKα) of 200 nM and an EC50 (naïve human CD8 T cells; Homo sapiens, T-cell, 20 h) of 35 nM. It also gave an IC50 ([1]; Mus musculus, MC-38) of 82 nM and an EC50 (Human venous whole blood; Homo sapiens, 24 h) of 1100 nM.

`CC(C)[C@@H]1CN(c2cc(=O)n(C)c3ccc(C#N)nc23)CCN1C(c1ccc(Cl)cc1)c1ccc(Cl)cc1` [Example 167, (R)-8-(4-(bis(4-chlorophenyl)methyl)-3-isopropylpiperazin-1-yl)-5-methyl-6-oxo-5,6-dihydro-1,5-naphthyridine-2-carbonitrile] gave an IC50 (human DGKζ) of 58000 nM, an IC50 (human DGKα) of 7700 nM and an EC50 (naïve human CD8 T cells; Homo sapiens, T-cell, 20 h) of 10000 nM. For the same molecule, the IC50 ([1]; Mus musculus, MC-38) was 10000 nM and the EC50 (Human venous whole blood; Homo sapiens, 24 h) was 20000 nM.

`Cc1c(N2CCN(C(c3ccc(F)cc3)c3ccc(F)cc3)[C@H](C)C2)c2nc(C#N)ccc2n(C)c1=O` [Example 99, (R)-8-(4-(bis(4-fluorophenyl)methyl)-3-methylpiperazin-1-yl)-5,7-dimethyl-6-oxo-5,6-dihydro-1,5-naphthyridine-2-carbonitrile] was tested, and the IC50 (human DGKζ) was 2800 nM, the IC50 (human DGKα) was 7000 nM and the EC50 (naïve human CD8 T cells; Homo sapiens, T-cell, 20 h) was 170 nM. The IC50 ([1]; Mus musculus, MC-38) was 1200 nM and the EC50 (Human venous whole blood; Homo sapiens, 24 h) was 2800 nM.

In the case of `CC[C@@H]1CN(c2c(Cl)c(=O)n(C)c3ccc(C#N)nc23)CCN1C(c1ccc(Cl)cc1)c1ccc(Cl)cc1` [Example 177, (R)-8-(4-(bis(4-chlorophenyl)methyl)-3-ethylpiperazin-1-yl)-7-chloro-5-methyl-6-oxo-5,6-dihydro-1,5-naphthyridine-2-carbonitrile], the IC50 (human DGKζ) is reported as 2700 nM, the IC50 (human DGKα) is reported as 5500 nM and the EC50 (naïve human CD8 T cells; Homo sapiens, T-cell, 20 h) is reported as 130 nM. The IC50 ([1]; Mus musculus, MC-38) was 870 nM and the EC50 (Human venous whole blood; Homo sapiens, 24 h) was 5000 nM.

`C[C@@H]1CN(c2cc(=O)n(C)c3ccc(C#N)nc23)[C@@H](C)CN1C(c1ccc(Cl)cc1)c1ccc(Cl)cc1` [Example 25, 8-((2S,5R)-4-(bis(4-chlorophenyl)methyl)-2,5-dimethylpiperazin-1-yl)-5-methyl-6-oxo-5,6-dihydro-1,5-naphthyridine-2-carbonitrile] showed an IC50 (human DGKζ) of 250 nM, an IC50 (human DGKα) of 650 nM and an EC50 (naïve human CD8 T cells; Homo sapiens, T-cell, 20 h) of 4.3 nM. It also gave an IC50 ([1]; Mus musculus, MC-38) of 41 nM and an EC50 (Human venous whole blood; Homo sapiens, 24 h) of 390 nM.

`CC[C@H]1CN(c2cc(=O)n(C)c3ccc(C#N)nc23)CCN1C(c1ccc(F)cc1)c1ccc(F)cc1` [Example 128, (S)-8-(4-(bis(4-fluorophenyl)methyl)-3-ethylpiperazin-1-yl)-5-methyl-6-oxo-5,6-dihydro-1,5-naphthyridine-2-carbonitrile] was tested, and the IC50 (human DGKζ) was 2000 nM, the IC50 (human DGKα) was 47000 nM and the EC50 (naïve human CD8 T cells; Homo sapiens, T-cell, 20 h) was 1400 nM. For the same molecule, the IC50 ([1]; Mus musculus, MC-38) was 940 nM and the EC50 (Human venous whole blood; Homo sapiens, 24 h) was 20000 nM.

Work on `Cc1ccc(C(c2ccc(C)cc2)N2C[C@H](C)N(c3cc(=O)n(C)c4ccc(C#N)nc34)C[C@H]2C)cc1` [Example 301, 8-[(2S,5R)-4-[bis(4-methylphenyl)methyl]-2,5-dimethylpiperazin-1-yl]-5-methyl-6-oxo-5,6-dihydro-1,5-naphthyridine-2-carbonitrile] yielded an IC50 (human DGKζ) of 870 nM, an IC50 (human DGKα) of 1500 nM and an EC50 (naïve human CD8 T cells; Homo sapiens, T-cell, 20 h) of 9.5 nM. The IC50 ([1]; Mus musculus, MC-38) was 72 nM and the EC50 (Human venous whole blood; Homo sapiens) was 520 nM.
